Reference: US20040176349A1, “Antibacterial composition” (priority 2001, published 2004)
In brackets after ≈: the same amount, converted by molar mass.

Key:
E. faecalis ATCC 29212 = experiment: Checkerboard microdilution MIC with PFOB, Table 2; type: cell-based
From the text: (§1) The aim of the study was to detect any synergy between PFOB and the other antibiotics. For the purposes of the study, synergy was defined in accordance with the FIC (fractional inhibitory concentration) index, as disclosed by Lorian (1991, In “Antibiotics in Laboratory Medicine” 3rd edition, Eds. Williams & Wilkins; esp. p 434-443). In essence, if the combination of test compounds gives at least a 4-fold reduction in the FIC value for each compound, then a synergy may be considered to exist (i.e. FIC of the combination <0.5=synergy; FIC 0.5-2.0=“indifference”; and FIC >2=antagonism).
(§2) In Table 2, results in the checkerboard indicating synergy are hatched, and specific optimum synergistic combinations are boxed.

E.faecalis 78097 (van B) = experiment: Checkerboard microdilution MIC with PFOB, Table 2; type: cell-based
From the text: as §1, §2

E. faecalis 5659 (vanA) = experiment: Checkerboard microdilution MIC with PFOB, Table 2; type: cell-based
From the text: as §1, §2

E. hirae ATCC 10541 = experiment: MIC, microbroth dilution (NCCLS), Table 1; type: cell-based
Description: (§3) The minimum inhibitory concentration (MIC) of the compounds was determined using the microbroth dilution technique in accordance with NCCLS guidelines, employing Mueller-Hinton broth (National Committee for Clinical Laboratory Standards, NCCLS, 1995 “Methods for dilution antimicrobial susceptibility tests for bacteria that grow aerobically”—approved standard M7-A5).
(§4) The compounds were tested in isolation, at different concentrations.

E. faecalis SFZ = experiment: MIC, microbroth dilution (NCCLS), Table 1; type: cell-based
Description: as §3, §4

E. faecalis Phillips = experiment: MIC, microbroth dilution (NCCLS), Table 1; type: cell-based
Description: as §3, §4

E. faecalis 24592 = experiment: MIC, microbroth dilution (NCCLS), Table 1; type: cell-based
Description: as §3, §4

E. faecium NCTC 7171 = experiment: MIC, microbroth dilution (NCCLS), Table 1; type: cell-based
Description: as §3, §4

E. faecalis NCTC 5957 = experiment: MIC, microbroth dilution (NCCLS), Table 1; type: cell-based
Description: as §3, §4

[1] = test system: enterococcal penicillin binding proteins (PBPs); experiment: Radiolabelled penicillin competition assay for PBP affinity; set-up: species or system Enterococcus; details: in words
Description: Further experiments were conducted in an attempt to determine the mechanism of the unexpected synergy between antibiotics (as exemplified by Ceftazidime) and compounds in accordance with general formula I or II (as exemplified by PFOB). The affinity of PFOB for enterococcal penicillin binding proteins (PBPs) was investigated using a conventional radiolabelling assay (Boulton & Orr 1983 “Detection of bacterial penicillin binding proteins and their role in the interpretation of the mode of action of beta-lactam antibiotics” In “Antibiotics: Assessment of antimicrobial activity and resistance” Eds. Denver & Quesnel. Society for […], Technical Series 18, pp161-182, Academic Press”). In this assay, the inner bacterial membrane containing the PBPs was extracted, exposed to differing concentrations of test agent (i.e. PFOB) and excess radiolabelled penicillin, followed by separation and visualisation of the PBPs using gel electrophoresis and fluorography.

E. faecalis ATCC 10541 = experiment: Checkerboard microdilution MIC with PFOB, Table 2; type: cell-based
From the text: The aim of the study was to detect any synergy between PFOB and the other antibiotics. For the purposes of the study, synergy was defined in accordance with the FIC (fractional inhibitory concentration) index, as disclosed by Lorian (1991, In “Antibiotics in Laboratory Medicine” 3rd edition, Eds. Williams & Wilkins; esp. p 434-443).

VRE 300 1590 = experiment: MIC, microbroth dilution (NCCLS), Table 1; type: cell-based, Enterococcus
Description: as §3, §4

VRE 300 2043 = experiment: MIC, microbroth dilution (NCCLS), Table 1; type: cell-based, Enterococcus
Description: as §3, §4

VRE 300 1562 = experiment: MIC, microbroth dilution (NCCLS), Table 1; type: cell-based, Enterococcus
Description: as §3, §4

VRE 1662 = experiment: MIC, microbroth dilution (NCCLS), Table 1; type: cell-based, Enterococcus
Description: as §3, §4

[2] = test system: E. faecalis SFZ (vancomycin-sensitive isolate, VSE); experiment: Time-kill experiment (viable count); type: cell-based; details: FIG. 2, ceftazidime alone at 128 mg/L, PFOB alone at 64 mg/L
From the text: FIG. 2 is a graph of Log viable count (cfu per ml) against time (in hours) for the VSE isolate in the presence or absence of the drugs. […] The isolates used in the Example are purely illustrative and not especially unusual.

Enterococcus strains = experiment: MIC against Enterococcus strains, summary of Example 1; type: cell-based; details: in words; for activity in isolation against the Enterococcus strains tested: compound alone, all strains of Table 1
Description: as §3, §4

enterococci = experiment: Checkerboard study, synergy summary of Example 2; type: cell-based, Enterococcus; details: in words
From the text: as §1

[3] = Enterococcus faecalis, read-out: MIC (alone) of Partner

C[C@@H](O)[C@H]1C(=O)N2C(C(=O)O)=C(C(C)(C)CCCN)O[C@H]12 [(1′R, 5R, 6R)-2-(4-amino-1,1-dimethylbutyl)-6-(1′-hydroxyethyl) oxapenem-3-carboxylic acid]
MIC (alone) of PFOB (E. faecalis ATCC 29212; E. faecalis ATCC 29212, alone): >32 µg/mL | MIC (alone) of PFOB (E.faecalis 78097 (van B); E.faecalis 78097 (van B), alone): >32 µg/mL | MIC (alone) of PFOB (E. faecalis 5659 (vanA); E. faecalis 5659 (vanA), alone): >32 µg/mL | MIC (E. hirae ATCC 10541; compound alone, E. hirae ATCC 10541, vancomycin-susceptible): 16 µg/mL (≈ 53.6 µM) | MIC (E. faecalis SFZ; compound alone, E. faecalis SFZ, vancomycin-susceptible): 64 µg/mL (≈ 215 µM) | MIC (E. faecalis Phillips; compound alone, E. faecalis Phillips, vancomycin-susceptible): 32 µg/mL (≈ 107 µM) | MIC (E. faecalis 24592; compound alone, E. faecalis 24592, vancomycin-susceptible): 32 µg/mL (≈ 107 µM) | MIC (E. faecium NCTC 7171; compound alone, E. faecium NCTC 7171, vancomycin-susceptible): 16 µg/mL (≈ 53.6 µM) | MIC (E. faecalis NCTC 5957; compound alone, E. faecalis NCTC 5957, vancomycin-susceptible): 32 µg/mL (≈ 107 µM) | affinity for PBPs compared with clavulanic acid ([1]; FIG. 4A versus FIG. 4B): much higher affinity | binding to PBPs in competition with radiolabelled penicillin ([1]; FIG. 4A, PFOB concentration of 3 mg/L): nearly all PBPs are bound by PFOB, except PBP3 | MIC (alone) of PFOB (E. faecalis ATCC 10541; E. faecalis ATCC 10541, alone): 16 µg/mL | MIC (VRE 300 1590; compound alone, VRE 300 1590, vancomycin-resistant): >128 µg/mL | MIC (VRE 300 2043; compound alone, VRE 300 2043, vancomycin-resistant): 32 µg/mL (≈ 107 µM) | MIC (VRE 300 1562; compound alone, VRE 300 1562, vancomycin-resistant): 128 µg/mL (≈ 429 µM) | MIC (VRE 1662; compound alone, VRE 1662, vancomycin-resistant): >128 µg/mL | effect on growth (viable count, time-kill) [2]: some inhibitory effect on growth | activity in isolation against the Enterococcus strains tested (Enterococcus strains): no significant activity

O=C(O)[C@H]1/C(=C/CO)O[C@@H]2CC(=O)N21 [CA, clavulanic acid]
synergy with PFOB (enterococci): No synergy | MIC of partner antibiotic in the presence of PFOB at 0.5 mg/L (E. faecalis ATCC 29212; E. faecalis ATCC 29212, PFOB 0.5 mg/L): >64 µg/mL | MIC of partner antibiotic in the presence of PFOB at 1 mg/L (E. faecalis ATCC 29212; E. faecalis ATCC 29212, PFOB 1 mg/L): >64 µg/mL | MIC of partner antibiotic in the presence of PFOB at 2 mg/L (E. faecalis ATCC 29212; E. faecalis ATCC 29212, PFOB 2 mg/L): >64 µg/mL | MIC of partner antibiotic in the presence of PFOB at 4 mg/L (E. faecalis ATCC 29212; E. faecalis ATCC 29212, PFOB 4 mg/L): >64 µg/mL | MIC of partner antibiotic in the presence of PFOB at 8 mg/L (E. faecalis ATCC 29212; E. faecalis ATCC 29212, PFOB 8 mg/L): >64 µg/mL | MIC of partner antibiotic in the presence of PFOB at 16 mg/L (E. faecalis ATCC 29212; E. faecalis ATCC 29212, PFOB 16 mg/L): >64 µg/mL | MIC of partner antibiotic in the presence of PFOB at 32 mg/L (E. faecalis ATCC 29212; E. faecalis ATCC 29212, PFOB 32 mg/L): >64 µg/mL | MIC (E. faecalis ATCC 29212; Enterococcus faecalis, ATCC29212, read-out: MIC (alone) of Partner): > 64 µg/mL | MIC of partner antibiotic in the presence of PFOB at 0.5 mg/L (E.faecalis 78097 (van B); E.faecalis 78097 (van B), PFOB 0.5 mg/L): >64 µg/mL | MIC of partner antibiotic in the presence of PFOB at 1 mg/L (E.faecalis 78097 (van B); E.faecalis 78097 (van B), PFOB 1 mg/L): >64 µg/mL | MIC of partner antibiotic in the presence of PFOB at 2 mg/L (E.faecalis 78097 (van B); E.faecalis 78097 (van B), PFOB 2 mg/L): >64 µg/mL | MIC of partner antibiotic in the presence of PFOB at 4 mg/L (E.faecalis 78097 (van B); E.faecalis 78097 (van B), PFOB 4 mg/L): >64 µg/mL | MIC of partner antibiotic in the presence of PFOB at 8 mg/L (E.faecalis 78097 (van B); E.faecalis 78097 (van B), PFOB 8 mg/L): >64 µg/mL | MIC of partner antibiotic in the presence of PFOB at 16 mg/L (E.faecalis 78097 (van B); E.faecalis 78097 (van B), PFOB 16 mg/L): >64 µg/mL | MIC of partner antibiotic in the presence of PFOB at 32 mg/L (E.faecalis 78097 (van B); E.faecalis 78097 (van B), PFOB 32 mg/L): >64 µg/mL | MIC (E.faecalis 78097 (van B); [3]): > 64 µg/mL | MIC of partner antibiotic in the presence of PFOB at 0.5 mg/L (E. faecalis 5659 (vanA); E. faecalis 5659 (vanA), PFOB 0.5 mg/L): >64 µg/mL | MIC of partner antibiotic in the presence of PFOB at 1 mg/L (E. faecalis 5659 (vanA); E. faecalis 5659 (vanA), PFOB 1 mg/L): >64 µg/mL | MIC of partner antibiotic in the presence of PFOB at 2 mg/L (E. faecalis 5659 (vanA); E. faecalis 5659 (vanA), PFOB 2 mg/L): >64 µg/mL | MIC of partner antibiotic in the presence of PFOB at 4 mg/L (E. faecalis 5659 (vanA); E. faecalis 5659 (vanA), PFOB 4 mg/L): >64 µg/mL | MIC of partner antibiotic in the presence of PFOB at 8 mg/L (E. faecalis 5659 (vanA); E. faecalis 5659 (vanA), PFOB 8 mg/L): >64 µg/mL | MIC of partner antibiotic in the presence of PFOB at 16 mg/L (E. faecalis 5659 (vanA); E. faecalis 5659 (vanA), PFOB 16 mg/L): >64 µg/mL | MIC of partner antibiotic in the presence of PFOB at 32 mg/L (E. faecalis 5659 (vanA); E. faecalis 5659 (vanA), PFOB 32 mg/L): >64 µg/mL | MIC (E. faecalis 5659 (vanA); [3]): > 64 µg/mL | MIC (E. hirae ATCC 10541; Enterococcus hirae, ATCC10541): > 128 µg/mL | MIC (E. faecalis SFZ; Enterococcus faecalis): > 128 µg/mL | MIC (E. faecalis Phillips; Enterococcus faecalis): > 128 µg/mL | MIC (E. faecalis 24592; Enterococcus faecalis, 24592): > 128 µg/mL | MIC (E. faecium NCTC 7171; Enterococcus faecium, NCTC7171): > 128 µg/mL | MIC (E. faecalis NCTC 5957; Enterococcus faecalis, NCTC5957): > 128 µg/mL | MIC of partner antibiotic in the presence of PFOB at 0.5 mg/L (E. faecalis ATCC 10541; E. faecalis ATCC 10541, PFOB 0.5 mg/L): >64 µg/mL | MIC of partner antibiotic in the presence of PFOB at 1 mg/L (E. faecalis ATCC 10541; E. faecalis ATCC 10541, PFOB 1 mg/L): >64 µg/mL | MIC of partner antibiotic in the presence of PFOB at 2 mg/L (E. faecalis ATCC 10541; E. faecalis ATCC 10541, PFOB 2 mg/L): >64 µg/mL | MIC of partner antibiotic in the presence of PFOB at 4 mg/L (E. faecalis ATCC 10541; E. faecalis ATCC 10541, PFOB 4 mg/L): >64 µg/mL | MIC of partner antibiotic in the presence of PFOB at 8 mg/L (E. faecalis ATCC 10541; E. faecalis ATCC 10541, PFOB 8 mg/L): >64 µg/mL | MIC of partner antibiotic in the presence of PFOB at 16 mg/L (E. faecalis ATCC 10541; E. faecalis ATCC 10541, PFOB 16 mg/L): >64 µg/mL | MIC of partner antibiotic in the presence of PFOB at 32 mg/L (E. faecalis ATCC 10541; E. faecalis ATCC 10541, PFOB 32 mg/L): >64 µg/mL | MIC (E. faecalis ATCC 10541; Enterococcus faecalis, ATCC10541, read-out: MIC (alone) of Partner): > 64 µg/mL | MIC (VRE 300 1590; Enterococcus, VRE): > 128 µg/mL | MIC (VRE 300 2043; Enterococcus, VRE): > 128 µg/mL | MIC (VRE 300 1562; Enterococcus, VRE): > 128 µg/mL | MIC (VRE 1662; Enterococcus, VRE): > 128 µg/mL | effect on the MIC of CAZ (Enterococcus strains; clavulanic acid added at 4 mg/L): no significant effect | activity in isolation against the Enterococcus strains tested (Enterococcus strains): inactive
